Test results reported in patent US4960908A, “Isoflavone derivatives, salts thereof, and oncostatic and immunosuppressive agents” (Yamanouchi Pharmaceutical Co., Ltd., priority 1985, dated 1990).
≈ marks a conversion by molar mass, not a printed value. Where a name gives a salt, the structure may show the parent alone.

Columns and labels:
[1] = biological target: tyrosine-specific protein kinase derived from Rous sarcoma virus (src gene pp60^src) (Rous sarcoma virus (strain Schmidt-Ruppin A), UniProt P00524); assay: Inhibitory action against tyrosine-specific protein kinase activity; type: biochemical
Chain of tyrosine-specific protein kinase derived from Rous sarcoma virus (src gene pp60^src) (P00524 2-526): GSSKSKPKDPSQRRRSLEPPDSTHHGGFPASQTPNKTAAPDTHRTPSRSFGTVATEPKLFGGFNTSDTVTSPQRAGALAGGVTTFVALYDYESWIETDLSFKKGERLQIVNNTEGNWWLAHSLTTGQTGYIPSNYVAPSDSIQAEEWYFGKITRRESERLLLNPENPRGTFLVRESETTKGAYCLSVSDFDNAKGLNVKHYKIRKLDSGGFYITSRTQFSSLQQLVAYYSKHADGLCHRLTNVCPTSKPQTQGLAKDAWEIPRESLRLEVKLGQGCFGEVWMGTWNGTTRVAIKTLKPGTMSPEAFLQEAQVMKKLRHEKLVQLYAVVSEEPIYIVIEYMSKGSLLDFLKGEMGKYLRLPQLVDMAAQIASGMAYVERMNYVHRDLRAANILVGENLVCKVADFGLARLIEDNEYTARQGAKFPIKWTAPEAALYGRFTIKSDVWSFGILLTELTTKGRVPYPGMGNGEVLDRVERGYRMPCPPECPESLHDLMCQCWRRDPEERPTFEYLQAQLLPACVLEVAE
Method: The inhibitory action against tyrosine-specific protein kinase activity of the compounds of this invention was measured according to the method described below using tyrosine-specific protein kinase derived from Rous sarcoma virus (src gene pp60^src).
Measurement of tyrosine-specific protein kinase activity (src gene pp60^src derived from Rous sarcoma virus) (refer to M. S. Colet, R. L. Ericson: Proceeding of the National Academy of Sciences of U.S.A., 75, 2021-2024, 1978).
3Y1 cells (fibroblasts derived from fetal rat kidney) transformed by Rous sarcome virus (RSV) were cultured, the cultured cells were collected and washed, RIPA buffer solution [containing 0.5% NP40, 0.1% sodium deoxycholate, 50 mM Tris-HCl (pH 7.2), 1 mM phenylmethylsulfonyl fluoride (PMSF) and 0.15M NaCl] was added to the collected cells, the mixture was allowed to stand at 0° C. for 30 minutes to effect solubilization, and the resulting mixture was centrifuged (100,000× g, 20 minutes). To the supernatant thus collected, was added antiserum obtained from a rabbit cancered by inoculation of RSV, the mixture was incubated at 0° C. for 30 to 60 minutes to cause pp60^src to react with antibody, and the immune complex was isolated by mixing with protein A/Sepharose-4B (Pharmacia) and washed with RIPA buffer. The total complex thus obtained (pp60^src /antibody/protein A/Sepharose-4B) was treated in a solution containing 20 mM Pipes/NaOH (pH 7.2), 5 mM MgCl2, 1 mM DTT and 10 μM [γ-^32 p]ATP (2 mCi/mMol) at 30° C. for five minutes to effect protein kinase reaction, which was terminated by addition a terminating solution containing SDS followed by boiling for three minutes. The reaction mixture was subjected to electrophoresis on 8% SDS/polyacrylamide gel and then to autoradiography, and the radioactivity of cut-out pp60^src band was measured on a liquid scintillation counter, thus quantifying the protein kinase reaction and calculating IC50 value.

RSV-3Y1 cells = assay: Inhibitory action against the growth of tumor cells (RSV-3Y1 cells); type: cell-based; settings: Rattus norvegicus, live cells counted after 1, 2, 3 and 4 days using trypan blue, read-out: IC50, Inhibition against the growth of RSV-3Y1
Method: The inhibitory action of the compounds of this invention against the growth of tumor cells was examined by using cells of rats transformed by Rous sarcoma virus (RSV-3Y1 cells).
The inhibitory actions of the compounds of Examples 1 through 17 against the tyrosine-specific protein kinase activity and against the growth of RSV-3Y1 cells were measured according to the methods described earlier.

[2] = system: antibody-forming cells (ovine erythrocytes immunization); assay: Immunosuppressive action: antibody-formation inhibition (hemolytic plaques, antibody-forming cells in the spleen); type: in vivo, male ddy mouse; settings: abdominal injection, once a day over four days, mouse
Method: The spleen was taken out five days after immunization, and the number of antibody-formingcells contained in it was measured as follows according to the method of Cunningham [Cunningham A. J.: Nature, 207, 1106 (1965)]. The splenetic cells were suspended in Eagle's MEM (Nissui Pharmaceutical), ovine erythrocytes and guinea-pig complement were added to this suspension, the resulting mixture was put in a Cunningham chamber (with its both ends sealed with paraffin) and incubated at 37° C. for 90 minutes, and the number of hemolytic plaques (a) (the number of antibody-forming cells) was counted.
Similarly, the number of hemolytic plaques (b) was measured with a mouse not injected with the compound of this invention (control). The antibody-formation inhibition rate was calculated according to the following equation: [formula]

[3] = reported in J.A.C.S. (page 3447, 1951); cited from earlier work
[4] = 5 mg/Kg for each administration
[5] = 25 mg/Kg for each administration

Structure (SMILES) | IC50 [1] [µM] | IC50 (RSV-3Y1 cells) [mg/L] | other results
CCOC(=O)C(=O)Oc1ccc(-c2c(C(=O)OCC)oc3cc(O)cc(O)c3c2=O)cc1 [Example 1, ethyl 4'-ethoxalyloxy-5,7-dihydroxy-2-isoflavonecarboxylate] | 2.26 | > 100 | Antibody-formation inhibition rate ([2]; 1 mg/Kg for each administration): 14.4%; Antibody-formation inhibition rate [2, 4]: 28.7%; Antibody-formation inhibition rate [2, 5]: 40.0%; Antibody-formation inhibition rate ([2]; 50 mg/Kg for each administration): 75.8%
COc1ccc(-c2c(CN(C)C)oc3cc(O)cc(O)c3c2=O)cc1 [Example 2, 2-(dimethylaminomethyl)-5,7-dihydroxy-4'-methoxyisoflavone hydrochloride] | > 293 | 18 | 
COc1ccc(-c2c(CNC3CCCCC3)oc3cc(O)cc(O)c3c2=O)cc1 [Example 3, 2-(Cyclohexylaminomethyl)-5,7-dihydroxy-4'-methoxyisoflavone hydrochloride] | > 253 | 16 | 
COc1ccc(-c2c(CNCCO)oc3cc(O)cc(O)c3c2=O)cc1.Cl [Example 4, 5,7-Dihydroxy-2-[(2-hydroxyethylamino)methyl]-4'-methoxyisoflavone hydrochloride] | > 254 | > 100 | 
O=c1c(-c2ccc(O)cc2)c(CN2CCCCC2)oc2cc(O)cc(O)c12 [Example 5, 4',5,7-trihydroxy-2-piperidinomethylisoflavone] |  | 9.5 (≈ 25.9 µM) | 
O=c1c(-c2ccc(O)cc2)c(CNC2=NCCS2)oc2cc(O)cc(O)c12 [Example 6, 4',5,7-Trihydroxy-2-[(2-thiazolin-2-ylamino)methyl]isoflavone] | 39 | > 100 | 
NC(=O)c1oc2cc(O)cc(O)c2c(=O)c1-c1ccc(O)cc1 [Example 7, 4',5,7-trihydroxy-2-isoflavonecarboxamide] |  | > 100 | 
CNC(=O)c1oc2cc(O)cc(O)c2c(=O)c1-c1ccc(O)cc1 [Example 8, 4',5,7-trihydroxy-N-methyl-2-isoflavonecarboxamide] | 45.8 | > 100 | 
O=C(NCCO)c1oc2cc(O)cc(O)c2c(=O)c1-c1ccc(O)cc1 [Example 9, 4',5,7-trihydroxy-N-(2-hydroxyethyl)-2-isoflavonecarboxamide] | 42 | > 100 | 
CSCc1oc2cc(O)cc(O)c2c(=O)c1-c1ccc(O)cc1 [Example 10, 4',5,7-trihydroxy-2-(methylthiomethyl)isoflavone] |  | 20 (≈ 60.5 µM) | 
O=c1c(-c2ccc(O)cc2)c(CSC2=NCCS2)oc2cc(O)cc(O)c12 [Example 11] |  | 20 (≈ 49.8 µM) | 
CCOC(=O)CSCc1oc2cc(O)cc(O)c2c(=O)c1-c1ccc(O)cc1 [Example 12, Ethyl [[(4',5,7-trihydroxy-2-isoflavonyl)methyl]thio]acetate] |  | > 100 | Antibody-formation inhibition rate [2, 4]: 25.3%; Antibody-formation inhibition rate [2, 5]: 50.0%
O=c1c(-c2ccc(O)cc2)c(CSCC(O)CO)oc2cc(O)cc(O)c12 (stereo not drawn) [Example 13, 2-[[(2,3-Dihydroxypropyl)thio]methyl]-4', 5,7-trihydroxyisoflavone] | 10.2 | > 100 | Antibody-formation inhibition rate [2, 4]: 27.0%; Antibody-formation inhibition rate [2, 5]: 76.6%
O=C(O)CCSCc1oc2cc(O)cc(O)c2c(=O)c1-c1ccc(O)cc1 [Example 14] | 25.7 | 90 (≈ 232 µM) | 
COC(=O)c1oc2cc(O)cc(O)c2c(=O)c1-c1ccc(O)cc1 [Example 15] |  | 60 (≈ 183 µM) | 
CC(C)OC(=O)c1oc2cc(O)cc(O)c2c(=O)c1-c1ccc(O)cc1 [Example 16, isopropyl 4',5,7-trihydroxy-2-isoflavonecarboxylate] |  | 25 (≈ 70.2 µM) | 
COCCOC(=O)c1oc2cc(O)cc(O)c2c(=O)c1-c1ccc(O)cc1 [Example 17, Methoxyethyl 4',5,7-trihydroxy-2-isoflavonecarboxylate] | 16.1 | 60 (≈ 161 µM) | 
O=c1c(-c2ccc(O)cc2)coc2cc(O)cc(O)c12 [genistein, 5,7,4'-trihydroxyisoflavone] |  |  | estrogenic action [3]: weak estrogenic action
